Measurements reported in the supplement of paper PMC5908809.

Assays:
NK-YS (IL-2 2.5 ng/mL) [1] = test: drug sensitivity score (DSS) (DSS units); higher = more sensitive; extreme values may be limits of the assay; conditions: 72 h
[2] = system: normal primary NK cells, pool 2 (3 donors) (IL-2 2.5 ng/mL); test: as above; conditions: 72 h
NK-92 (IL-2 2.5 ng/mL) [3] = test: as above; conditions: 72 h
KAI3 (IL-2 2.5 ng/mL) [4] = test: as above; conditions: 72 h
YT (IL-2 2.5 ng/mL) [5] = test: as above; conditions: 72 h
[6] = system: normal primary NK cells, pool 1 (3 donors), resting (IL-2 0 ng/mL); test: as above; conditions: 72 h
NKL (IL-2 2.5 ng/mL) [7] = test: as above; conditions: 72 h
[8] = system: normal primary NK cells, pool 1 (3 donors) (IL-2 2.5 ng/mL); test: as above; conditions: 72 h
[9] = system: normal primary NK cells, pool 3 (3 donors) (IL-2 2.5 ng/mL); test: as above; conditions: 72 h
IMC-1 (IL-2 20 ng/mL) [10] = test: as above; conditions: 72 h
SNK-6 (IL-2 2.5 ng/mL) [11] = test: as above; conditions: 72 h
KHYG-1 (IL-2 2.5 ng/mL) [12] = test: as above; conditions: 72 h
DERL-7 (IL-2 2.5 ng/mL) [13] = test: as above; conditions: 72 h
[14] = system: normal NK cells expanded with K562-aAPC; test: as above; conditions: 72 h; IL-2 2.5 ng/mL
Protocol: (§1)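 Drug sensitivity and resistance testing on K562-aAPC-expanded normal NK cells: 5 concentrations (10-fold steps over a 10,000-fold range), 72 h at 37 °C, viability by CellTiter-Glo normalised to DMSO and benzethonium chloride controls; DSS from the fitted curve.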

NK-YS (IL-2 2.5 ng/mL) [15] = test: percent inhibition of viability; higher = more inhibition; conditions: 72 h
[16] = system: normal primary NK cells, pool 2 (3 donors) (IL-2 2.5 ng/mL); test: as above; conditions: 72 h
NK-92 (IL-2 2.5 ng/mL) [17] = test: as above; conditions: 72 h
KAI3 (IL-2 2.5 ng/mL) [18] = test: as above; conditions: 72 h
YT (IL-2 2.5 ng/mL) [19] = test: as above; conditions: 72 h
[20] = system: normal primary NK cells, pool 1 (3 donors), resting (IL-2 0 ng/mL); test: as above; conditions: 72 h
NKL (IL-2 2.5 ng/mL) [21] = test: as above; conditions: 72 h
[22] = system: normal primary NK cells, pool 1 (3 donors) (IL-2 2.5 ng/mL); test: as above; conditions: 72 h
[23] = system: normal primary NK cells, pool 3 (3 donors) (IL-2 2.5 ng/mL); test: as above; conditions: 72 h
IMC-1 (IL-2 20 ng/mL) [24] = test: as above; conditions: 72 h
SNK-6 (IL-2 2.5 ng/mL) [25] = test: as above; conditions: 72 h
KHYG-1 (IL-2 2.5 ng/mL) [26] = test: as above; conditions: 72 h
DERL-7 (IL-2 2.5 ng/mL) [27] = test: as above; conditions: 72 h
[28] = system: normal NK cells expanded with K562-aAPC; test: as above; conditions: 72 h, IL-2 2.5 ng/mL
Protocol: as §1

CS(=O)(=O)CCNCc1ccc(-c2ccc3ncnc(Nc4ccc(OCc5cccc(F)c5)c(Cl)c4)c3c2)o1 [Lapatinib] (max concentration tested 1000 nM)
Conditions | drug sensitivity score
DERL-7 (IL-2 2.5 ng/mL) [13] | 0
IMC-1 (IL-2 20 ng/mL) [10] | 0
KAI3 (IL-2 2.5 ng/mL) [4] | 0.01
KHYG-1 (IL-2 2.5 ng/mL) [12] | 0
NK-92 (IL-2 2.5 ng/mL) [3] | 6.01
NK-YS (IL-2 2.5 ng/mL) [1] | 0
NKL (IL-2 2.5 ng/mL) [7] | 0.4
SNK-6 (IL-2 2.5 ng/mL) [11] | 0
YT (IL-2 2.5 ng/mL) [5] | 0.63
[2] | 0
[6] | 2.38
[8] | 1.89
[9] | 0
[14] | 0

percent inhibition of viability [%]
Conditions | 0.1 nM | 1 nM | 10 nM | 100 nM | 1000 nM
DERL-7 (IL-2 2.5 ng/mL) [27] | 4.2 | 1.17 | 2.53 | -0.89 | 9.64
IMC-1 (IL-2 20 ng/mL) [24] | -4.47 | -0.19 | -1 | 2.17 | 9.49
KAI3 (IL-2 2.5 ng/mL) [18] | -4.84 | -7.01 | -5.48 | -1.85 | 11.8
KHYG-1 (IL-2 2.5 ng/mL) [26] | -0.63 | -4.12 | -1.74 | 0.27 | 9.49
NK-92 (IL-2 2.5 ng/mL) [17] | -9.88 | -2.81 | 5.1 | 30.6 | 28.1
NK-YS (IL-2 2.5 ng/mL) [15] | -7.32 | -8.47 | -3.59 | -5.11 | 5.83
NKL (IL-2 2.5 ng/mL) [21] | -3.26 | -0.98 | 3.19 | 8.28 | 14.2
SNK-6 (IL-2 2.5 ng/mL) [25] | -20.3 | -7.47 | -17 | -15.2 | -16.8
YT (IL-2 2.5 ng/mL) [19] | -1.2 | -2.12 | -1.08 | 6.88 | 14.2
[16] | -7.46 | 8.95 | 4.77 | 1.81 | 4
[20] | -12 | 4 | -0.24 | 6.97 | 30.1
[22] | -9.91 | 11.7 | 10.2 | 12.6 | 4.9
[23] | -12.2 | 9.92 | 7.91 | -3.46 | -0.3
[28] | -5.72 | -9.28 | -7.55 | -4.36 | -0.7

CNC(=O)c1cccc2cc(Oc3ccnc4cc(OCC5(N)CC5)c(OC)cc34)ccc12 [Lucitanib] (max concentration tested 10000 nM)
Conditions | drug sensitivity score
DERL-7 (IL-2 2.5 ng/mL) [13] | 0.68
IMC-1 (IL-2 20 ng/mL) [10] | 0
KAI3 (IL-2 2.5 ng/mL) [4] | 4.47
KHYG-1 (IL-2 2.5 ng/mL) [12] | 5.63
NK-92 (IL-2 2.5 ng/mL) [3] | 6.93
NK-YS (IL-2 2.5 ng/mL) [1] | 5.23
NKL (IL-2 2.5 ng/mL) [7] | 0
SNK-6 (IL-2 2.5 ng/mL) [11] | 3.25
YT (IL-2 2.5 ng/mL) [5] | 2.92
[2] | 0
[6] | 0.81
[8] | 0
[9] | 0
[14] | 1.53

percent inhibition of viability [%]
Conditions | 1 nM | 10 nM | 100 nM | 1000 nM | 10000 nM
DERL-7 (IL-2 2.5 ng/mL) [27] | -0.32 | -4.66 | 2.4 | -2.57 | 23.4
IMC-1 (IL-2 20 ng/mL) [24] | -4.99 | 1.11 | 1.41 | 2.72 | 0.85
KAI3 (IL-2 2.5 ng/mL) [18] | -0.3 | -0.75 | -0.45 | 11.7 | 49.6
KHYG-1 (IL-2 2.5 ng/mL) [26] | -3.19 | -3.91 | -0.83 | 10.4 | 70.4
NK-92 (IL-2 2.5 ng/mL) [17] | -12.1 | -11.8 | 3.06 | 13.7 | 83.8
NK-YS (IL-2 2.5 ng/mL) [15] | -6.67 | -4.7 | -0.96 | 9.75 | 65.5
NKL (IL-2 2.5 ng/mL) [21] | 1.05 | 4.31 | 4.24 | -3.6 | 3.06
SNK-6 (IL-2 2.5 ng/mL) [25] | -7.37 | -13.2 | -13.8 | -8.69 | 69.6
YT (IL-2 2.5 ng/mL) [19] | -5.87 | -7.33 | -6.32 | -2.96 | 58.7
[16] | -3.78 | 2.2 | 2.46 | -3.23 | -5
[20] | -16.7 | 4.29 | 3.09 | 0.61 | 22.1
[22] | -6.86 | 10.5 | -2.99 | 8.01 | 5.53
[23] | -7.6 | 0.39 | 3.76 | -6.23 | -5.45
[28] | -5.59 | -4.77 | -3.52 | 4.7 | 23.6
